Data on 33 molecules can be found in patent US10414740B2, “Glutaminase inhibitors and method of use” (Agios Pharmaceuticals, Inc., priority 2012, dated 2019).

Molecules are shown by their SMILES.

In the assay the target is T1, glutaminase (GAC) (Homo sapiens, UniProt O94925).
T1 sequence (O94925 55-598 isoform O94925-3 limits assumed): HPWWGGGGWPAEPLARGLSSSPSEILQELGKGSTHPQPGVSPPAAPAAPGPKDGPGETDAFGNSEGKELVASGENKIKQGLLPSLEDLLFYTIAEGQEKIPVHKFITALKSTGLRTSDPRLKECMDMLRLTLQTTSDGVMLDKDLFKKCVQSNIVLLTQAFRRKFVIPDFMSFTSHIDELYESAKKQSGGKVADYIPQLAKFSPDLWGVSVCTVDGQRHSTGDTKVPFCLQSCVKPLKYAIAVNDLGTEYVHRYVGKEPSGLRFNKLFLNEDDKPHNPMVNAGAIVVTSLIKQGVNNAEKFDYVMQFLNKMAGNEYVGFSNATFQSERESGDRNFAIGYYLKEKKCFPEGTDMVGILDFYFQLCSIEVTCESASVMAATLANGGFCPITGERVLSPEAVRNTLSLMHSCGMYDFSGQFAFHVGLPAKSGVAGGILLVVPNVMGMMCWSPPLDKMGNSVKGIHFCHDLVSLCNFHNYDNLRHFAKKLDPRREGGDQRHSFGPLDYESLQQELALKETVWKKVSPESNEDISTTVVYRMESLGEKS
Description: glutaminase coupled endpoint assay (Example A). It counts as biochemical. The note with it: inhibition of glutaminase; IC50 tested in an assay of Example A or Example B. As for the experimental part:
In this example, the enzymatic activity of glutaminase is measured through a coupled endpoint assay. […] The glutamate produced is converted to 2-OG by a kinetic excess of glutamate dehydrogenase. […] However, a kinetic excess of the third coupling enzyme, diaphorase, recycles NAD from NADH to keep the NAD concentration constant during the timecourse of the assay. Diaphorase, also supplied in kinetic excess, oxidizes NADH produced by GDH back to NAD with the concomitant reduction of rezasurin to the highly fluorescent resorufin. […] A reduction in the signal indicates inhibition of some component of the coupled enzyme system. Prospective hits are counterscreened against GDH/diaphorase alone to remove hits to the coupling enzyme system in a second assay.
2. […] Add 1 μl a compound in 100% DMSO 2. Add 40 μl of Enzyme Mix and incubate for 60 minute at room temperature 3. Add 10 μl of Substrate Mix to start reaction 4.
For the molecule `O=C(Cc1cccnc1)Nc1nnc(C/C=C/Cc2nnc(NC(=O)Cc3cccnc3)s2)s1` [Compound 27, (E)-N,N′-(5,5′-(but-2-ene-1,4-diyl)bis(1,3,4-thiadiazole-5,2-diyl))bis(2-(pyridin-3-yl)acetamide)], the IC50 – broadly, the concentration that gives 50% inhibition – was less than 100 nM. For `CC(C(=O)Nc1nnc(CCCCc2nnc(NC(=O)C(C)c3ccc(Cl)cc3)s2)s1)c1ccc(Cl)cc1` (stereo not drawn) [Compound 52, N,N′-(5,5′-(butane-1,4-diyl)bis(1,3,4-thiadiazole-5,2-diyl))bis(2-(4-chlorophenyl)propanamide)] the value was 100 to 500 nM; for `O=C(CCc1ccccc1)Nc1nnc(CCCCCc2nnc(NC(=O)CCc3ccccc3)s2)s1` [Compound 20, N,N′-(5,5′-(pentane-1,5-diyl)bis(1,3,4-thiadiazole-5,2-diyl))bis(3-phenylpropanamide)], 1000 to 10000 nM; for `O=C(Cc1cccnc1)Nc1nnc(CCCc2nnc(NC(=O)Cc3cccnc3)s2)s1` [Compound 26, N,N′-(5,5′-(propane-1,3-diyl)bis(1,3,4-thiadiazole-5,2-diyl))bis(2-(pyridin-3-yl)acetamide)], 100 to 500 nM. The molecule `O=C(Cc1c[nH]c2cccnc12)Nc1nnc(CCCCc2nnc(NC(=O)Cc3c[nH]c4cccnc34)s2)s1` [Compound 127, N,N′-(5,5′-(butane-1,4-diyl)bis(1,3,4-thiadiazole-5,2-diyl))bis(2-(1H-pyrrolo[3,2-b]pyridin-3-yl)acetamide)] had an IC50 of less than 100 nM.

The molecule `Cc1ccc(OCC(=O)Nc2nnc(CCCCc3nnc(NC(=O)COc4ccc(C)cc4C)s3)s2)c(C)c1` [Compound 65] came in with an IC50 of 1000 to 10000 nM. With `O=C(Cc1c[nH]c2cnccc12)Nc1nnc(CCCCc2nnc(NC(=O)Cc3c[nH]c4cnccc34)s2)s1` [Compound 125, N,N′-(5,5′-(butane-1,4-diyl)bis(1,3,4-thiadiazole-5,2-diyl))bis(2-(1H-pyrrolo[2,3-c]pyridin-3-yl)acetamide)] the figure was less than 100 nM; with `O=C(CC1CCCCC1)Nc1nnc(CCCCc2nnc(NC(=O)CC3CCCCC3)s2)s1` [Compound 121, N,N′-(5,5′-(butane-1,4-diyl)bis(1,3,4-thiadiazole-5,2-diyl))bis(2-cyclohexylacetamide)], 100 to 500 nM.

`CNC(=O)c1nnc(CCSCCc2nnc(C(=O)NC)s2)s1` [Compound 77] yielded an IC50 of 1000 to 10000 nM. In turn, `O=C(Cc1ccccc1)Nc1nnc(CCS(=O)(=O)CCc2nnc(NC(=O)Cc3ccccc3)s2)s1` [Compound 4, N,N′-(5,5′-(sulfonylbis(ethane-2,1-diyl))bis(1,3,4-thiadiazole-5,2-diyl))bis(2-phenylacetamide)] had an IC50 of less than 100 nM. For `CN(C(=O)Nc1nnc(CCSCCc2nnc(NC(=O)N(C)c3ccccc3)s2)s1)c1ccccc1` [Compound 18, 1,1′-(5,5′-(thiobis(ethane-2,1-diyl))bis(1,3,4-thiadiazole-5,2-diyl))bis(3-methyl-3-phenylurea)] the value was 1000 to 10000 nM.

Take `CN(C)c1ccc(CC(=O)Nc2nnc(CCCCc3nnc(NC(=O)Cc4ccc(N(C)C)cc4)s3)s2)cc1` [Compound 107, N,N′-(5,5′-(butane-1,4-diyl)bis(1,3,4-thiadiazole-5,2-diyl))bis(2-(4-(dimethylamino)phenyl)acetamide)]: the IC50 lay within 100 to 500 nM. Molecule `Cc1cccc(OCC(=O)Nc2nnc(CCCCc3nnc(NC(=O)COc4cccc(C)c4)s3)s2)c1` [Compound 104] displayed an IC50 of 1000 to 10000 nM. With `O=C(CCc1ccccc1O)Nc1nnc(CCCCc2nnc(NC(=O)CCc3ccccc3O)s2)s1` [Compound 45] the figure was less than 100 nM. For `O=C(CCc1ccccc1)Nc1nnc(CCS(=O)(=O)CCc2nnc(NC(=O)CCc3ccccc3)s2)s1` [Compound 21, N,N′-(5,5′-(2,2′-sulfonylbis(ethane-2,1-diyl))bis(1,3,4-thiadiazole-5,2-diyl))bis(3-phenylpropanamide)] the value was less than 100 nM. Consider `CC(CC(=O)c1ccccc1)C(=O)Nc1nnc(CCCCc2nnc(NC(=O)C(C)CC(=O)c3ccccc3)s2)s1` (stereo not drawn) [Compound 62, N,N′-(5,5′-(butane-1,4-diyl)bis(1,3,4-thiadiazole-5,2-diyl))bis(2-methyl-4-oxo-4-phenylbutanamide)], for which the IC50 fell in the range of 100 to 500 nM. With `Cc1cc(CC(=O)Nc2nnc(CCCCc3nnc(NC(=O)Cc4cc(C)no4)s3)s2)on1` [Compound 42, N,N′-(5,5′-(butane-1,4-diyl)bis(1,3,4-thiadiazole-5,2-diyl))bis(2-(3-methylisoxazol-5-yl)acetamide)] the figure was 100 to 500 nM. For `O=C(Cc1cccnc1)Nc1nnc(CCS(=O)(=O)CCc2nnc(NC(=O)Cc3cccnc3)s2)s1` [Compound 14, N,N′-(5,5′-(sulfonylbis(ethane-2,1-diyl))bis(1,3,4-thiadiazole-5,2-diyl))bis(2-(pyridin-3-yl)acetamide)] the value was less than 100 nM. In the case of `O=C(Nc1nnc(CCCCc2nnc(NC(=O)C3CCCCC3)s2)s1)C1CCCCC1` [Compound 90, N,N′-(5,5′-(butane-1,4-diyl)bis(1,3,4-thiadiazole-5,2-diyl))dicyclohexanecarboxamide], the IC50 was 100 to 500 nM. With `O=C(Cc1cccc2[nH]ccc12)Nc1nnc(CCCCc2nnc(NC(=O)Cc3cccc4[nH]ccc34)s2)s1` [Compound 123, N,N′-(5,5′-(butane-1,4-diyl)bis(1,3,4-thiadiazole-5,2-diyl))bis(2-(1H-indol-4-yl)acetamide)] the figure was less than 100 nM; with `CC(CC(=O)Nc1nnc(CCCCc2nnc(NC(=O)CC(C)c3ccccc3)s2)s1)c1ccccc1` (stereo not drawn) [Compound 110], 1000 to 10000 nM. In the case of `O=C(Cc1ccccc1)Nc1nnc(CCSCc2nnc(NC(=O)Cc3ccccc3)s2)s1` [Compound 48], the 50% inhibitory concentration (IC50) was less than 100 nM. With `O=C(Nc1nnc(CCSCCc2nnc(NC(=O)OC3CCCCC3)s2)s1)OC1CCCCC1` [Compound 8, Dicyclohexyl (5,5′-(thiobis(ethane-2,1-diyl))bis(1,3,4-thiadiazole-5,2-diyl))dicarbamate] the figure was 500 to 1000 nM; with `O=C(Cc1ccccc1)Nc1nnc(CSCc2nnc(NC(=O)Cc3ccccc3)s2)s1` [Compound 32], 1000 to 10000 nM; with `O=C(CCc1ccco1)Nc1nnc(CCCCc2nnc(NC(=O)CCc3ccco3)s2)s1` [Compound 49, N,N′-(5,5′-(butane-1,4-diyl)bis(1,3,4-thiadiazole-5,2-diyl))bis(3-(furan-2-yl)propanamide)], 100 to 500 nM.

In turn, `Cn1cc(CC(=O)Nc2nnc(CCCCc3nnc(NC(=O)Cc4cn(C)c5ccccc45)s3)s2)c2ccccc21` [Compound 130, N,N′-(5,5′-(butane-1,4-diyl)bis(1,3,4-thiadiazole-5,2-diyl))bis(2-(1-methyl-1H-indol-3-yl)acetamide)] registered an IC50 of less than 100 nM. In turn, `O=C(Cc1ccc(Cl)cc1)Nc1nnc(CCCCc2nnc(NC(=O)Cc3ccc(Cl)cc3)s2)s1` [Compound 113, N,N′-(5,5′-(butane-1,4-diyl)bis(1,3,4-thiadiazole-5,2-diyl))bis(2-(4-chlorophenyl)acetamide)] yielded an IC50 of 100 to 500 nM.

`O=C(Cc1ccccc1)Nc1nnc(CC[S+]([O-])CCc2nnc(NC(=O)Cc3ccccc3)s2)s1` [Compound 7, N,N′-(5,5′-(sulfinylbis(ethane-2,1-diyl))bis(1,3,4-thiadiazole-5,2-diyl))bis(2-phenyl Acetamide)]: the IC50 lay in the range of 100 to 500 nM. With `Cc1[nH]c2ccccc2c1CC(=O)Nc1nnc(CCCCc2nnc(NC(=O)Cc3c(C)[nH]c4ccccc34)s2)s1` [Compound 116, N,N′-(5,5′-(butane-1,4-diyl)bis(1,3,4-thiadiazole-5,2-diyl))bis(2-(2-methyl-1H-indol-3-yl)acetamide)] the figure was less than 100 nM. With `COc1ccc2c(c1)C(CC(=O)Nc1nnc(CCCCc3nnc(NC(=O)CC4CC(=O)c5ccc(OC)cc54)s3)s1)CC2=O` (stereo not drawn) [Compound 43, N,N′-(5,5′-(butane-1,4-diyl)bis(1,3,4-thiadiazole-5,2-diyl))bis(2-(6-methoxy-3-oxo-2,3-dihydro-1H-inden-1-yl)acetamide)] the figure was 100 to 500 nM; with `O=C(Cc1ccc(Cl)nc1)Nc1nnc(CCCCc2nnc(NC(=O)Cc3ccc(Cl)nc3)s2)s1` [Compound 78, N,N′-(5,5′-(butane-1,4-diyl)bis(1,3,4-thiadiazole-5,2-diyl))bis(2-(6-chloropyridin-3-yl)acetamide)], 500 to 1000 nM. With `O=C(Nc1nnc(CCCCc2nnc(NC(=O)C3CC=CC3)s2)s1)C1CC=CC1` [Compound 64, N,N′-(5,5′-(butane-1,4-diyl)bis(1,3,4-thiadiazole-5,2-diyl))dicyclopent-3-enecarboxamide] the figure was 100 to 500 nM. `O=C(CCc1cccnc1)Nc1nnc(CCCCc2nnc(NC(=O)CCc3cccnc3)s2)s1` [Compound 54, N,N′-(5,5′-(butane-1,4-diyl)bis(1,3,4-thiadiazole-5,2-diyl))bis(3-(pyridin-3-yl)propanamide)]: the IC50 lay in the range of 500 to 1000 nM.
